Laboratory results from ChEMBL document CHEMBL2346609, “Synthesis, characterization and Akt phosphorylation inhibitory activity of cyclopentanecarboxylate-substituted alkylphosphocholines” (Bioorg Med Chem, 2013).

Experiments:
[1] = Cytotoxicity against human KATO III cells by flow cytometric analysis; format: functional, cell-based, KATO III cell
A549 [2] = test: Ratio of miltefosine IC50 to compound IC50 for human A549 cells; format: functional
[3] = target: RAC-alpha serine/threonine-protein kinase (Homo sapiens, UniProt P31749); test: Inhibition of Akt phosphorylation in human insulin-stimulated A549 cells incubated for 2 hrs prior to insulin-induction measured after 30 mins by ELISA; format: cell-based
Chain of RAC-alpha serine/threonine-protein kinase (P31749 whole entry): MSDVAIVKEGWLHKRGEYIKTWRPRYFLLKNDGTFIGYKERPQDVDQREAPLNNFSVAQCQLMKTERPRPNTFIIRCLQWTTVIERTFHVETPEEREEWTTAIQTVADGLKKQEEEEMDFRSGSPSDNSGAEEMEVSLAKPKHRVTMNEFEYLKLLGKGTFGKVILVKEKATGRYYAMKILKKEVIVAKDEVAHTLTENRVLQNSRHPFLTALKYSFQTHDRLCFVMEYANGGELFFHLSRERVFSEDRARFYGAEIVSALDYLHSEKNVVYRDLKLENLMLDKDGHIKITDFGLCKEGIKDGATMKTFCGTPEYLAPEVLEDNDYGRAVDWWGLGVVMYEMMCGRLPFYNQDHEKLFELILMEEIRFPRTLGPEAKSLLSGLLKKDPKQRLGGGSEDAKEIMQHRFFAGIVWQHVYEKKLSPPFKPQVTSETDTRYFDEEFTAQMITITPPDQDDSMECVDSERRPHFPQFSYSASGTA

MCF7 = test: Cytotoxicity against human MCF7 cells by flow cytometric analysis; format: functional, cell-based
A549 [4] = test: Cytotoxicity against human A549 cells by flow cytometric analysis; format: functional, cell-based
A549 [5] = test: Ratio of edelfosine IC50 to compound IC50 for human A549 cells; format: functional
A549 [6] = test: Ratio of perifosine IC50 to compound IC50 for human A549 cells; format: functional

| IC50 [3] [µM] | SMILES | IC50 [1] [µM] | Ratio IC50 (A549 [2]) | IC50 (MCF7) [µM] | IC50 (A549 [4]) [µM] | Ratio IC50 (A549 [5]) | Ratio IC50 (A549 [6]) |
| --- | --- | --- | --- | --- | --- | --- | --- |
| 3.1 | CCCCCCCCCCCCC[C@@]1(C(=O)OCC)CCC[C@H]1OP(=O)([O-])OCC[N+](C)(C)C (racemic) | 14.1 | 4 | 11.2 | 2 | 4 | 4 |
| 2 | CCCCCCCCCCCCCCCC[C@@]1(C(=O)OCC)CCC[C@H]1OP(=O)([O-])OCC[N+](C)(C)C (racemic) | 7.9 | 4 | 5.6 | 1.6 | 4 | 4 |
| 10.9 | CCCCCCCCCCCCCCCCCC[C@@]1(C(=O)OCC)CCC[C@H]1OP(=O)([O-])OCC[N+](C)(C)C (racemic) | 15 | – | 13.1 | 6.2 | – | – |
| 7 | CCCCCCCCCCCCCCCCCCCC[C@@]1(C(=O)OCC)CCC[C@H]1OP(=O)([O-])OCC[N+](C)(C)C (racemic) | 11.1 | – | 9.7 | 13.6 | – | – |
| 5.5 | CCCCCCCCCCCCCCCCCCCCCC[C@@]1(C(=O)OCC)CCC[C@H]1OP(=O)([O-])OCC[N+](C)(C)C (racemic) | 10.4 | – | 16.8 | 6.9 | – | – |
| 6.2 | CCCCCCCCCCCCC[C@@]1(C(=O)OCC)CCC[C@@H]1OP(=O)([O-])OCC[N+](C)(C)C (racemic) | 9.7 | – | 4.5 | 2.7 | – | – |
| 5 | CCCCCCCCCCCCCCCC[C@@]1(C(=O)OCC)CCC[C@@H]1OP(=O)([O-])OCC[N+](C)(C)C (racemic) | 10.6 | – | 11.1 | 3.6 | – | – |
| 3 | CCCCCCCCCCCCCCCCCC[C@@]1(C(=O)OCC)CCC[C@@H]1OP(=O)([O-])OCC[N+](C)(C)C (racemic) | 9.9 | – | 7.5 | 4.6 | – | – |
| 6.9 | CCCCCCCCCCCCCCCCCCCC[C@@]1(C(=O)OCC)CCC[C@@H]1OP(=O)([O-])OCC[N+](C)(C)C (racemic) | 10.9 | – | 16 | 7.2 | – | – |
| 19.1 | CCCCCCCCCCCCCCCCCCCCCC[C@@]1(C(=O)OCC)CCC[C@@H]1OP(=O)([O-])OCC[N+](C)(C)C (racemic) | 11.4 | – | 7.6 | 17.8 | – | – |
| 3.5 | CCCCCCCCCCCCCCCCCCOCC(COP(=O)([O-])OCC[N+](C)(C)C)OC (configuration not stated) [EDELFOSINE] | 12.8 | – | 9.3 | 7.4 | – | – |
| 9.6 | CCCCCCCCCCCCCCCCOP(=O)([O-])OCC[N+](C)(C)C [MILTEFOSINE] | – | – | – | – | – | – |
| 5.3 | CCCCCCCCCCCCCCCCCCOP(=O)([O-])OC1CC[N+](C)(C)CC1 [PERIFOSINE] | – | – | – | – | – | – |
